From US10870635B2, “Compounds and their use as BACE1 inhibitors” (ALLGENESIS BIOTHERAPEUTICS, INC., priority 2015, dated 2020) come the findings set out here.

For one experiment, the target named is recombinant BACE2 (Homo sapiens (Human), UniProt Q9Y5Z0). In words: AnaSpec BACE2 fluorescent assay. The format is biochemical. The procedure:
A BACE2 activity assay kit from AnaSpec (Fremont, Calif.) was used to determine the potency of the selected compounds by AnaSpec BACE2 fluorescent assay. To each well of a black 96-well micro plate, 50 μl of the β-secretase substrate (Hylite Fluor 488) diluted 1:100 using assay buffer was first added.
The compounds were serially diluted (1:2) into DMSO from their 10 mM stock concentrations in DMSO. The serially diluted inhibitors were diluted 1:100 into 1× assay buffer in a 96-well polypropylene plate (assay dilution plate). The final concentration of these compounds tested was 300 nM, 150 nM, 75 nM, 37.5 nM, 18.75 nM, 9.375 nM, 4.688 nM, 2.344 nM, 1.172 nM, 0.586 nM, and 0.293 nM.
A volume of 10 μl of the inhibitor from the assay dilution plate, a control inhibitor LY2886721 or inhibitor vehicle was then added to each well of the black 96-well micro plate.
The recombinant BACE2 was diluted in an assay buffer and the final BACE2 was 10.6 nM. The enzyme was added in a volume of 40 μl to each well of a black 96-well micro plate.
The reagents were mixed gently and the assay plate was placed into a POLARstar fluorescent plate reader with excitation wavelength set at 485 nm and the emission wavelength set at 520 nm. The plate reader was set to take readings every 5 minutes for up to 30 minutes or a 30 minute endpoint reading was used.
An appropriate integrated first-order rate equation was used to fit the data accumulated over a 30-40 minute collection period. Dose responses for inhibitors were run in duplicate.

For experiment [1], the system named is Aβ38, Aβ40 and Aβ42 in CSF. Nature of the experiment: Efficacy study in monkeys: Aβ biomarkers in CSF after single oral administration. The format is in vivo, cynomolgus monkeys. As to conditions: Monkey CSF. The source says: Certain isoforms of amyloid β peptide (AR), such as Aβ338, Aβ340 and Aβ342 have been established as relevant biomarkers that reflect BACE1 activity and have been exploited to establish translational relationships between different cellular assays and animal models. In this efficacy study, mammals were used to assess amyloid β reduction with BACE1 inhibitors. In a clinical setting, plasma and cerebrospinal fluid (CSF) are the accessible compartments to measure soluble amyloid β levels to determine target profile. It is important to analyze plasma and CSF levels which relate to changes in brain amyloid β levels. The concentration of BACE1 inhibitors and their time-dependent reduction of plasma, CSF and brain amyloid β levels were investigated following intravenous and oral administrations of BACE1 inhibitors.
a (ii). Formulation for PO administration: 5% (v/v) PEG400+95% (v/v) of 1% (w/v) methyl cellulose in water (the viscosity of methyl cellulose is 20 g/L, 20° C., cPa·s: 350.0-550.0). The test article solutions were prepared by dissolving the compound in PEG400 followed by the addition of the aqueous solution to the final volume.
For the oral formulation of a BACE1 inhibitor in the monkey efficacy study (at the dose of 20 mg/kg with the concentration of 2 mg/ml)
1) Weighed […] of the selected BACE1 inhibitors into a clean vial;
2) Added 2.826 mL of PEG400 into the tube containing the compound. Then vortexed for 5 min and sonicated for 45 min;
3) Added 53.688 mL of 1% MC in water into the tube containing the compound. Then vortexed for 4 min and sonicated for 4 min; and
4) Adjusted the pH to the physiological value by using 1N NaOH.
Several studies have shown that drug transport into the CNS may be more similar between humans and primates. […] To explore the mechanism of BACE1 compounds, the compounds were tested using this in vivo study. […] The monkey Aβ reduction study usually takes 3 weeks.
The time-course profiles of neurodegeneration biomarkers were determined following single oral administration of the selected BACE1 inhibitors to male cynomolgus monkeys. Blood samples were collected from all animals via the saphenous vein or cephalic vein at 0 (pre-dose), 0.5, 1, 3, 6, 8, 12 and 24 hr post-dose into test tubes containing potassium ethylenediaminotetraacetic acid (K2EDTA). CSF samples were collected via a pre-implanted cannula at the foramina occipital magnum site at 0 (pre-dose), 3, 6, 12 and 24 hr post-dose.
Plasma was separated from the blood by centrifugation at 4° C. and stored at −80° C. until analyzing. The biomarkers of Aβ38, Aβ40 and Aβ42 in CSF were quantified using Meso Scale Discovery (MSD) multiplex electrochemiluminescence immunoassay according to the manufacturer's instructions. The plates were first blocked with 150 μL of Diluent 35 for 1 hour at room temperature with constant shaking at 600 rpm. After washing three times with 200 μL washing buffer, 25 μL of 1× detection antibody solution, plus Aβ40 blocker, 25 μL of seven standards, zero standard and four-fold diluted samples were added to the assay plate. The plate was incubated for 2 hours at room temperature, with constant shaking at 600 rpm. Upon finishing, the plate was washed three times with washing buffer and read in a Sector Imager 6000 (MSD) immediately after addition of 150 μL of 2× Read Buffer T. Aβ concentrations were calculated with reference to the standard curves of each individual peptide and expressed as pg/mL using SoftMax Pro GXP 5.4.4.

Experiment [2] deals with BACE1 (recombinant β-secretase enzyme) (Homo sapiens (Human), UniProt P56817). In words: AnaSpec BACE1 fluorescent assay (beta-secretase activity assay). The format is biochemical. The procedure: A BACE1 activity assay kit from AnaSpec (Fremont, Calif.) was used to determine the potency of the selected BACE1 inhibitors by AnaSpec BACE1 fluorescent assay. The recombinant β-secretase enzyme was diluted 1:200 in 1× assay buffer (1 part of 1× assay buffer and 1 part of TBS containing 0.1% Tween 20). The enzyme was added in a volume of 40 μl to each well of a black 96-well micro plate.
Chain of BACE1 (recombinant β-secretase enzyme) (P56817 46-501): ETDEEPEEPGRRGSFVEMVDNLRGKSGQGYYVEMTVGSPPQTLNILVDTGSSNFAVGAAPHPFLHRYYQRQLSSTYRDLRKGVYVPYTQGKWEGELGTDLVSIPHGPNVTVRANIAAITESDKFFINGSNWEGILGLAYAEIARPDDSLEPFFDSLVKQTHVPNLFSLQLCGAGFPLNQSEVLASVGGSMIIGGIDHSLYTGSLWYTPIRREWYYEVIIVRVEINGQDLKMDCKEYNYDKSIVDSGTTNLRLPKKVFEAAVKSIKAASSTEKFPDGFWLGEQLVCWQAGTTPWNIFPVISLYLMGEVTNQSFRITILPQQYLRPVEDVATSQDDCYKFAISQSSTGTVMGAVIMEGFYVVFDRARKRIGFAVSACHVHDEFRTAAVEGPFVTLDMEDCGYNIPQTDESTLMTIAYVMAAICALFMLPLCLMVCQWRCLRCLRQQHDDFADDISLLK
The BACE1 inhibitors were serially diluted into DMSO from their 10 mM stock concentrations in DMSO. The serially diluted inhibitors were diluted 1:100 into 1× assay buffer in a 96-well polypropylene plate (assay dilution plate). The final concentration of the BACE1 inhibitor tested was 300 nM, 100 nM, 30 nM, 10 nM, 3 nM, 1 nM 0.3 nM, and 0.00 nM. Dose responses for inhibitors were run in duplicate.
A volume of 10 μl of the inhibitor from the assay dilution plate, a control inhibitor LY2886721 or inhibitor vehicle was then added to each well of the black 96-well micro plate containing BACE1.
To each well of the black 96-well micro plate, 50 μl of the β-secretase substrate (Hylite Fluor 488) diluted 1:100 using assay buffer was added. The reagents were mixed gently and the assay plate was placed into a POLARstar fluorescent plate reader with excitation wavelength set at 485 nm and the emission wavelength set at 520 nm. The plate reader was set to take readings every 5 minutes for up to 30 minutes or a 30 minute endpoint reading was used.
An appropriate integrated first-order rate equation was used to fit the data accumulated over a 30-40 minute collection period.

Chain of recombinant BACE2 (Q9Y5Z0 63-518): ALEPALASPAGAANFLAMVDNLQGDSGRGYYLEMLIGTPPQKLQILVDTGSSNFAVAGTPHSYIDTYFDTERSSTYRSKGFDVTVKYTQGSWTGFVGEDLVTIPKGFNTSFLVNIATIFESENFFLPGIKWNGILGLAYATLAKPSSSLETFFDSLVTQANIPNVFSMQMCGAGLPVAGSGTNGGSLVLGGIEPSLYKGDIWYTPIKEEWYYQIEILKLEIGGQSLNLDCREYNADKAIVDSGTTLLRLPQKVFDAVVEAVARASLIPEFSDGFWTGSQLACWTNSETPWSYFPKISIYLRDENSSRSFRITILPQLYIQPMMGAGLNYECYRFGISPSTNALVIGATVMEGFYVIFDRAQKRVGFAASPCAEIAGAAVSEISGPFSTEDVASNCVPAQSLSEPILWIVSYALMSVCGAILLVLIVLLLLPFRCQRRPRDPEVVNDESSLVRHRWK

For the compound `CC#Cc1ccc2sc3ccc([C@]4(C)CS(=O)(=O)C(C)(C)C(N)=N4)cc3c2c1` [Example 103, (R)-5-Amino-3,6,6-trimethyl-3-(8-(prop-1-yn-1-yl)dibenzo[b,d]thiophen-2-yl)-3,6-dihydro-2H-1,4-thiazine 1,1-dioxide], the IC50 came to 12 nM on recombinant BACE2 and 39 nM in experiment [2]. Moreover, in experiment [1], the “% of maximum Aβ40 inhibition over 24 hours” value is reported as 45.9%.

`CC#Cc1ccc2sc3cc(F)c([C@]4(C)CS(=O)(=O)C(C)(C)C(=N)N4)cc3c2c1` [Example 109, (R)-5-Amino-3-(3-fluoro-8-(prop-1-yn-1-yl)dibenzo[b,d]thiophen-2-yl)-3,6,6-trim ethyl-3,6-dihydro-2H-1,4-thiazine 1,1-dioxide]: the IC50 on recombinant BACE2 is 16 nM; in experiment [2], 25 nM. Also, the “% of maximum Aβ40 inhibition over 24 hours” value in experiment [1] was determined as 37.3%.
